16 molecules from patent US7982042B2, “Thiozanthene derivatives as delta-opioid modulators” (priority 2003, dated 2011) can be followed below.

A word on the Ki: it is a dissociation constant, usually derived from enzyme kinetics or from competition with a known ligand. The term EC50 denotes the concentration at which the effect is half-maximal.

For assay [1], the target named is T1, Rat brain delta opioid receptor (Rattus norvegicus, UniProt P33533).
T1 construct: from tissue; host or cells: rat brain
T1 sequence (P33533 whole entry): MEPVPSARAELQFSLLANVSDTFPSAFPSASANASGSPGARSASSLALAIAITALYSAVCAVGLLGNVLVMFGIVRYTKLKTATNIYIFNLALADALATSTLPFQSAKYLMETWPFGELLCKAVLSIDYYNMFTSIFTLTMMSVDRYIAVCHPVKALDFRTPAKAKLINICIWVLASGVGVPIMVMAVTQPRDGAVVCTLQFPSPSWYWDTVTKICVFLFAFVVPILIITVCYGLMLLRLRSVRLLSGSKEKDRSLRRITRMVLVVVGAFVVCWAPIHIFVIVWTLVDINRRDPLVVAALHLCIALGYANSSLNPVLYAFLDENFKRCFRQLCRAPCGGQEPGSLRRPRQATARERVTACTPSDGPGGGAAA
In words: Rat brain delta opioid receptor binding.

Assay [2] has as its target T2, Rat brain mu opioid receptor (Rattus norvegicus, UniProt P33535).
T2 construct: from tissue; host or cells: forebrain of male Sprague Dawley rats
Nature of the assay: Rat brain mu opioid receptor binding assay ([3H]DAMGO). The method, then:
• Procedure: Male, Sprague Dawley (150-250 g, VAF, Charles River, Kingston, N.Y.) are killed by CO2, and their brains removed and placed immediately in ice cold Tris HCl buffer (50 mM, pH 7.4). The forebrains are separated from the remainder of the brain by a coronal transection, beginning dorsally at the colliculi and passing ventrally through the midbrain-pontine junction. After dissection, the forebrains are homogenized in Tris buffer in a Teflon®-glass homogenizer. The homogenate is diluted to a concentration of 1 g of forebrain tissue per 80 mL Tris and centrifuged at 39,000×g for 10 min. The pellet is resuspended in the same volume of Tris buffer containing 5 mM MgCl2 with several brief pulses from a Polytron homogenizer. This particulate preparation is used for the mu-opioid binding assays. […] Kd and Ki values are calculated using GraphPad PRISM data analysis program.

The target of the next assay is T3, delta opioid receptor (Mus musculus, UniProt P32300).
T3 construct: host or cells: NG108-15 cells (membranes, purchased)
T3 sequence (P32300 whole entry): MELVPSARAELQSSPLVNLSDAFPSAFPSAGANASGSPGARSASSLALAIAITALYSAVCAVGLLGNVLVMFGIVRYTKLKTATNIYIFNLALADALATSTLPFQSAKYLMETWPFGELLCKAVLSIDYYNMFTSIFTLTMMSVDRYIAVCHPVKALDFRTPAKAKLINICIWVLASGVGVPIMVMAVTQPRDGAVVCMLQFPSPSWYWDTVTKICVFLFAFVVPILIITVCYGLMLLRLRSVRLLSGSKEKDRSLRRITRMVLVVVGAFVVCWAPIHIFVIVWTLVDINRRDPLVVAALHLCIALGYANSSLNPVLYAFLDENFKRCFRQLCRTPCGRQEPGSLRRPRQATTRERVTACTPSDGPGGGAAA
Nature of the assay: [35S]GTPγS binding assay in NG108-15 cell membrane. It counts as biochemical. To be noted: DOR GTPγS EC50, delta opioid receptor GTPγS functional assay. The protocol:
NG108-15 cell membranes were purchased from Applied Cell Sciences (Rockville, Md.). An 8 mg/mL portion of membrane protein was suspended in 10 mM TRIS-HC pH 7.2, 2 mM EDTA, 10% sucrose.
Membranes were maintained at 4-8° C. A 1 mL portion of membranes was added into 10 mL cold binding assay buffer. The assay buffer contained 50 mM Tris, pH 7.6, 5 mM MgCl2, 100 mM NaCl, 1 mM DTT and 1 mM EGTA. The membrane suspension was homogenized with a Polytron for 2 times and centrifuged at 3000 rpm for 10 min. The supernatent was then centrifuged at 18,000 rpm for 20 min. The pellet was saved in a tube and 10 ml assay buffer was added into the tube. The pellet and buffer were mixed with a Polytron.
The pellet membranes (75 μg/ml) were preincubated with SPA (10 mg/ml) at 25° C. for 45 min in the assay buffer. […] GTPγS in the same Tris buffer containing 100 μM GDP in total volume of 200 μl. Increasing concentrations of receptor agonists were used to stimulate [^35S] GTPγS binding. The basal binding was tested in the absent agonists and no specific binding was tested in the present 10 μM unlabeled GTPγS. The data were analyzed on a Top counter.
% of Basal=(stimulate−non specific)*100/(basal−non specific). EC50 values are calculated using a Prism program.
Background: Binding of GTPγS marks nucleotide exchange on a G protein.

The target in assay [3] is T4, human delta opioid receptor (Homo sapiens, UniProt P41143).
T4 construct: purchased Receptor Biology, Inc. (Baltimore, Md.); host or cells: CHO cells expressing the human delta receptor (membranes)
T4 sequence (P41143 whole entry): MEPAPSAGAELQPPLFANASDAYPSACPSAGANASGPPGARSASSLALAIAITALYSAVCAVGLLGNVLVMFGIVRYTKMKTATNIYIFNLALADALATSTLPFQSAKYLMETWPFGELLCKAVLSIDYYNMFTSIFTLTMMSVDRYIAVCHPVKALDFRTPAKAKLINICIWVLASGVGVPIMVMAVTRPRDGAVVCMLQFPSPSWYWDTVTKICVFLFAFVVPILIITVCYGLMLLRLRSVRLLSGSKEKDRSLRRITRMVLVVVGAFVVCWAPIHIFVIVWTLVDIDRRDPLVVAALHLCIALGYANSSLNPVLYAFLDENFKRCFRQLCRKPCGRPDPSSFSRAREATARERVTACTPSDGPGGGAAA
Nature of the assay: [35S]GTPγS binding assay in CHO-hδ cell membranes. Type of assay: biochemical. The method, then:
CHO-hδ cell membranes are purchased from Receptor Biology, Inc. (Baltimore, Md.). 10 mg/ml of membrane protein is suspended in 10 mM TRIS-HC pH 7.2, 2 mM EDTA, 10% sucrose.
Membranes are maintained at 4-8° C. 1 ml of membranes is added into 15 ml cold binding assay buffer. The assay buffer contained 50 mM HEPES, pH 7.6, 5 mM MgCl2, 100 mM NaCl, 1 mM DTT and 1 mM EDTA. The membrane suspension is homogenized with a Polytron 2 times and centrifuged at 3000 rpm for 10 min. The supernatant is then centrifuged at 18,000 rpm for 20 min. The pellet is saved in a tube and 10 ml assay buffer is added into the tube. The pellet and buffer are mixed with a Polytron.
The pellet membranes (20 μg/ml) are preincubated with SPA (10 mg/ml) at 25° C. for 45 min in the assay buffer. The SPA (5 mg/ml) coupled with membranes (10 μg/ml) is then incubated with 0.5 nM [^35S]GTPgS in the same HEPES buffer containing 50 μM GDP in total volume of 200 μl. Increasing concentrations of receptor agonists are used to stimulate [^35S]GTPgS binding. The basal binding is tested in the absence of agonists and non-specific binding is tested in the presence of 10 μM unlabeled GTP S. The data are analyzed on a Top counter.

A further assay addresses T5, human mu opioid receptor (Homo sapiens, UniProt P35372).
T5 construct: purchased Receptor Biology, Inc. (Baltimore, Md.); host or cells: CHO cells expressing the human mu receptor (membranes)
Nature of the assay: [35S]GTPγS binding assay in CHO-hμ cell membranes. As to conditions: inhibition relative to 1 uM DAMGO, read-out: hMOR GTPγS % I @10 μM. Type of assay: biochemical. The method, then: CHO-hμ cell membranes are purchased from Receptor Biology, Inc. (Baltimore, Md.). About 10 mg/ml of membrane protein is suspended in 10 mM TRIS-HC pH 7.2, 2 mM EDTA, 10% sucrose.
Membranes are maintained at 4-8° C. 1 ml of membranes is added into 15 ml cold binding assay buffer. The assay buffer contains 50 mM HEPES, pH 7.6, 5 mM MgCl2, 100 mM NaCl, 1 mM DTT and 1 mM EDTA. The membrane suspension is homogenized with a Polytron 2 times and centrifuged at 3000 rpm for 10 min. The supernatant is then centrifuged at 18,000 rpm for 20 min. The pellet is saved in a tube and 10 ml assay buffer is added to the tube. The pellet and buffer are mixed with a Polytron.
The pellet membranes (20 μg/ml) are preincubated with SPA (10 mg/ml) at 25 C′ for 45 min in the assay buffer. The SPA (5 mg/ml) coupled with membranes (10 μg/ml) is then incubated with 0.5 nM [^35S]GTPgS in the same HEPES buffer containing 50 μM GDP in total volume of 200 μl. Increasing concentrations of receptor agonists are used to stimulate [^35S]GTPgS binding. The basal binding is tested in the absence of agonists and non-specific binding is tested in the present 10 μM unlabeled GTPγS. The data are analyzed on a Top counter.
% of Basal=(stimulate−non-specific)*100/(basal−non specific). % inhibition value values are calculated using a formula, % Inhibition=(% Basal of 1 uM DAMGO−% Basal of compound)*100/(% Basal of 1 uM DAMGO−100)

Setting [4] is: human delta opioid receptor GTPγS functional assay, read-out: hDOR GTPγS EC50.
Where [5] appears, read: hDOR GTPγS EC50, human delta opioid receptor GTPγS functional assay.

Like-named read-outs stand apart in the source and are kept apart here.

T5 sequence (P35372 whole entry): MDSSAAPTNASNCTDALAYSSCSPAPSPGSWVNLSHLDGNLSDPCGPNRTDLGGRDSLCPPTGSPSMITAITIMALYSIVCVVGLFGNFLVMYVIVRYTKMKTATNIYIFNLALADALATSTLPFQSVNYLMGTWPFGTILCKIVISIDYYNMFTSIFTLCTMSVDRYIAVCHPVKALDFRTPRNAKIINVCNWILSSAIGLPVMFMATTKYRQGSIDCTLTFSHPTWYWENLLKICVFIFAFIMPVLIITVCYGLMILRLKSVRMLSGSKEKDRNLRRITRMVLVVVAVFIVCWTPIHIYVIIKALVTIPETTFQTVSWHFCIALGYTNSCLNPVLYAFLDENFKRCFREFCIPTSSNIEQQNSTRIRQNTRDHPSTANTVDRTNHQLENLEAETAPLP
T2 sequence (P33535 whole entry): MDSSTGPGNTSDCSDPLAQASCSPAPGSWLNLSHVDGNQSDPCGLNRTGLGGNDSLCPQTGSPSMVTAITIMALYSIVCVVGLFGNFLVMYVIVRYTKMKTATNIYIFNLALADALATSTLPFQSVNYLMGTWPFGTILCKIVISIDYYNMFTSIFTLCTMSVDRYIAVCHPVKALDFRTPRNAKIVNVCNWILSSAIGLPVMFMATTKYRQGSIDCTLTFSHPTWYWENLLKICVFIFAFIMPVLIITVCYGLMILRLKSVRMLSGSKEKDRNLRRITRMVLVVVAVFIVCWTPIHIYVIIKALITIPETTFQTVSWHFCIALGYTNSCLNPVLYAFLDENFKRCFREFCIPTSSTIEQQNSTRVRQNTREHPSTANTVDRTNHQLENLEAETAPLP

On to `CC(C)N(C)C(=O)c1ccc2c(c1)Oc1ccccc1C2=C1CC2CCC(C1)N2` [Compound 92, 9-(8-Aza-bicyclo[3.2.1]oct-3-ylidene)-9H-xanthene-3-carboxylic acid isopropyl-methyl-amide], for which the Ki in assay [1] (rDOR Ki) and in assay [2] (rMOR Ki) was 2.09 nM in each case. The molecule further returned an EC50 on delta opioid receptor of 55.3 nM.

Regarding `CCN(CC)C(=O)c1ccc2c(c1)Sc1ccccc1C2=C1CC2CCC(C1)N2` (single isomer, unassigned) [Compound 62, 9-(8-Aza-bicyclo[3.2.1]oct-3-ylidene)-9H-thioxanthene-3-carboxylic acid diethylamide], the Ki in assay [1] (rDOR Ki) is 2.96 nM; in assay [2] (rMOR Ki), 739 nM. Further, the EC50 at delta opioid receptor was 8.35 nM.

For `CCN(CC)C(=O)c1ccc2c(c1)Sc1ccccc1C2=C1CC2CCC(C1)N2` (single isomer, unassigned) [Compound 61, 9-(8-Aza-bicyclo[3.2.1]oct-3-ylidene)-9H-thioxanthene-3-carboxylic acid diethylamide], the figures for the Ki in assay [1] (rDOR Ki) and in assay [2] (rMOR Ki) were 133 nM and 7180 nM, respectively. In addition, the concentration for a half-maximal effect (EC50) at delta opioid receptor was determined as 188 nM.

Turning to `CCN(CC)C(=O)c1ccc2c(c1)Oc1c(O)cccc1C2=C1CC2CCC(C1)N2` [Compound 100, 9-(8-Aza-bicyclo[3.2.1]oct-3-ylidene)-5-hydroxy-9H-xanthene-3-carboxylic acid diethylamide], the Ki is 0.274 nM in assay [1] (rDOR Ki) and 5.85 nM in assay [2] (rMOR Ki). The EC50 on delta opioid receptor was found to be 0.452 nM.

With `CCN(CC)C(=O)c1ccc2c(c1)Oc1cc(O)ccc1C2=C1CC2CCC(C1)N2` [Compound 76, 9-(8-Aza-bicyclo[3.2.1]oct-3-ylidene)-6-hydroxy-9H-xanthene-3-carboxylic acid diethylamide], the Ki was found to be 1.7 nM in assay [1] (rDOR Ki) and 285 nM in assay [2] (rMOR Ki). At delta opioid receptor, the EC50 turned out to be 5.91 nM.

`CCN(CC)C(=O)c1ccc2c(c1)Oc1ccccc1C2C1CCNCC1` (centres unmarked) [Compound 42, 9-Piperidin-4-yl-9H-xanthene-3-carboxylic acid diethylamide]: the Ki in assay [1] (read-out: rDOR Ki) is 14.7 nM; in assay [2] (read-out: rMOR Ki), 8790 nM. The EC50 in assay [3] (setting [4]) came out at 266 nM. Moreover, on human mu opioid receptor, the inhibition at 10 µM is 4%.

`CCN(CC)C(=O)c1ccc2c(c1)Oc1c(OC)cccc1C2=C1CC2CCC(C1)N2` [Compound 68, 9-(8-Aza-bicyclo[3.2.1]oct-3-ylidene)-5-methoxy-9H-xanthene-3-carboxylic acid diethylamide]: the Ki in assay [1] (rDOR Ki) is 0.74 nM; in assay [2] (rMOR Ki) it was 1290 nM. The same molecule returned an EC50 on delta opioid receptor of 22 nM.

For `CCN(CC)C(=O)c1ccc2c(c1)Oc1c(cccc1-c1ccoc1)C2=C1CC2CCC(C1)N2` [Compound 97, 9-(8-Aza-bicyclo[3.2.1]oct-3-ylidene)-5-furan-3-yl-9H-xanthene-3-carboxylic acid diethylamide], the inhibitory constant (Ki) stood at 1.78 nM in assay [1] (rDOR Ki) and 1810 nM in assay [2] (rMOR Ki). On delta opioid receptor, the EC50 was determined as 13.3 nM.

As to `CCN(CC)C(=O)c1ccc2c(c1)Oc1c(cccc1-c1ccsc1)C2=C1CC2CCC(C1)N2` [Compound 99, 9-(8-Aza-bicyclo[3.2.1]oct-3-ylidene)-5-thiophen-3-yl-9H-xanthene-3-carboxylic acid diethylamide], the figures for the Ki in assay [1] (rDOR Ki) and in assay [2] (rMOR Ki) were 19.3 nM and 3490 nM, respectively. This molecule showed an EC50 on delta opioid receptor of 12.5 nM.

On to `CCN(CC)C(=O)c1ccc2c(c1)Oc1ccccc1C2=C1CCN(C(=N)N)CC1` [Compound 31, 9-(1-Carbamimidoyl-piperidin-4-ylidene)-9H-xanthene-3-carboxylic acid diethylamide], for which the Ki is 29.8 nM in assay [1] (rDOR Ki) and 564 nM in assay [2] (read-out: rMOR Ki). The EC50 in assay [3] (setting [4]) was determined as 253 nM. The inhibition at 10 µM at human mu opioid receptor is 14%.

In the case of `CCN(CC)C(=O)c1ccc2c(c1)Oc1ccccc1C2=C1CC2CCC(C1)N2Cc1ccccn1` [Compound 44], the Ki in assay [1] (rDOR Ki) amounted to 0.15 nM; in assay [2] (rMOR Ki) it was 77.2 nM. The midpoint of the response in assay [3] (setting [5]), the EC50, lay at 0.873 nM. Further, the inhibition at 10 µM on human mu opioid receptor was 28%.

Consider `CCN(CC)C(=O)c1ccc2c(c1)Oc1ccccc1C2=C1CCN(CCO)CC1` [Compound 35, 9-[1-(2-Hydroxy-ethyl)-piperidin-4-ylidene]-9H-xanthene-3-carboxylic acid diethylamide], for which the Ki was 7.01 nM in assay [1] (rDOR Ki) and above 10000 nM in assay [2] (read-out: rMOR Ki). Further, in assay [3] (setting [4]), the EC50 was 271 nM. Moreover, the inhibition at 10 µM on human mu opioid receptor is 17%.

Take `CCN(CC)C(=O)c1ccc2c(c1)Oc1ccccc1C2=C1CCN(C=Nc2ccccc2)CC1` [Compound 36, 9-(1-Phenyliminomethyl-piperidin-4-ylidene)-9H-xanthene-3-carboxylic acid diethylamide]: the values for the Ki in assay [1] (rDOR Ki) and in assay [2] (rMOR Ki) were 0.79 nM and above 10000 nM, respectively. The EC50 in assay [3] (setting [5]) was 42.5 nM. Besides, the inhibition at 10 µM at human mu opioid receptor came to 14%.

For `CCN(CC)C(=O)c1ccc2c(c1)Oc1ccccc1C2=C1CCNCC1` [Compound 3, 9-Piperidin-4-ylidene-9H-xanthene-3-carboxylic acid diethylamide], the figures for the Ki in assay [1] (rDOR Ki) and in assay [2] (rMOR Ki) were 0.95 nM and 6790 nM, respectively. Further, a half-maximal effect in assay [3] (setting [5]) (EC50) was put at 47 nM. For the same molecule, the inhibition at 10 µM at human mu opioid receptor worked out at 1%.

Turning to `CCN(CC)C(=O)c1ccc2c(c1)Oc1ccccc1C2=C1CCN(Cc2ccccc2O)CC1` [Compound 30], the Ki came to 10.9 nM in assay [1] (rDOR Ki) and 912 nM in assay [2] (read-out: rMOR Ki). Moreover, in assay [3] (setting [4]), the EC50 worked out at 2480 nM. In addition, the inhibition at 10 µM on human mu opioid receptor is 24%.

As to `CCN(CC)C(=O)c1ccc2c(c1)Oc1ccccc1C2=C1CC2CCC(C1)N2` [Compound 24, 9-(8-Aza-bicyclo[3.2.1]oct-3-ylidene)-9H-xanthene-3-carboxylic acid diethylamide], the Ki turned out to be 0.57 nM in assay [1] (rDOR Ki) and 5690 nM in assay [2] (rMOR Ki). Moreover, the EC50 in assay [3] (setting [5]) turned out to be 10.2 nM. Moreover, the inhibition at 10 µM at human mu opioid receptor amounted to 1%.
